Laboratory results from EP4813972A1, “CRYSTAL FORM OF BENZENE SULFONATE CONTAINING PIPERIDINE RING COMPOUND, AND PREPARATION METHOD THEREFOR AND USE THEREOF” (Shanghai Curegene Pharmaceutical Co., Ltd., priority 2023, dated 2025).
In brackets after ≈: the same amount, converted by molar mass.

How the values were obtained:
[1] = Solubility study of crystal forms (aqueous HCl pH 1 / 20 mM phosphate buffer pH about 7, HPLC analysis); type: physicochemical
Procedure: The detailed parameters were as follows:
An aqueous HCl solution at pH 1 was prepared. […] After dissolution by stirring, the solution was adjusted to pH = 1 with 1 N NaOH or 1 N HCl. The timing was started, and after T = 3 h, the pH was measured. […] When T = 4 h, the dissolution status was observed, and a dilution factor was selected according to the dissolution status. 50% ACN was used as a diluent for HPLC analysis. When T = 24 h, the dissolution state was observed. With reference to the concentration data at 4 h and the dissolution state at 24 h, a dilution factor was selected, and HPLC analysis was performed. The solubility was calculated according to the HPLC analysis results described above.
The aqueous HCl solution at pH 1 in the step described above was replaced with a 20 mM phosphate buffer solution at pH of about 7, and the steps described above were repeated. The solubility was calculated.

[2] = Stability study of crystal forms (crystal form status by XRPD after storage); type: physicochemical; conditions: 14 days
Procedure: Test method: The sample was prepared on a zero-background silicon wafer by gently pressing to obtain a flat surface. About 10-20 mg of a sample was used for XRPD analysis.

- solubility at 4 h ([1]; 20 mm phosphate buffer, pH=7, 4 h): 9.89 mg/mL (≈ 21 mM)
- solubility at 24 h ([1]; 20 mm phosphate buffer, pH=7, 24 h): 6.14 mg/mL (≈ 13 mM)
- solubility at 4 h ([1]; aqueous hcl, pH=1, 4 h): 11.5 mg/mL (≈ 24.4 mM)
- solubility at 24 h ([1]; aqueous hcl, pH=1, 24 h): 11.4 mg/mL (≈ 24.1 mM)
- Dissolution status ([1]; pH=1, 4 h): Clear solution
- Dissolution status ([1]; pH=1, 24 h): Clear solution
- Dissolution status ([1]; pH=7, 4 h): Clear solution
- Dissolution status ([1]; pH=7, 24 h): Clear solution
- Crystal form after treatment ([2]; 25 °C/60% RH, open container): Crystal form F1
- Crystal form after treatment ([2]; Sealed container at 2-8 °C): Crystal form F1
- Crystal form after treatment ([2]; Sealed container at 40 °C): Crystal form F1
- Crystal form after treatment ([2]; Sealed container at 60 °C): Crystal form F1
SMILES: COC(=O)[C@H](c1ccccc1Cl)N1CC[C@@H](SCOC(=O)OC(C)C)/C(=C\C(=O)O)C1 [Crystal form F1]
